For 99 compounds, IC50 results are on record in PubChem BioAssay AID504765 (Sanford-Burnham Center for Chemical Genomics, 2011).

“And” between values parts separate entries of the source, which are not always exact repeats. Equal values may be shown once. The source made the active and inactive calls. No rule for the calls is given here.

The target of this experiment is glucose-6-phosphate dehydrogenase-6-phosphogluconolactonase (Plasmodium falciparum 3D7). Put plainly: concentration-dependent PfGluPho enzyme inhibition – biochemical, fluorescence intensity, dose response (AID 504765). The following applies: Recombinant PfG6PD enzyme, fluorescence intensity (NADPH).
Turning to `CCC(=O)OCOc1ccc(/C=C2/CCC(CN(C)C)C2=O)cc1` (centres undefined), the IC50 was 6.86 µM.

`COc1ccc(C(=O)Nc2cc(Cl)ccc2C(=O)O)cc1`: the 50% inhibitory concentration (IC50) was 15 µM. With `C=CCN1C=C2C(=O)C(C)(OC(=O)CCC(=O)OC)C(=O)C(Br)=C2C=C1c1ccc(OC)cc1` (centres undefined) the figure was 2.79 µM; with `CN1CCN(C(=S)c2ccc(Br)cc2)CC1`, “inactive”; with `CN(C)c1ncc(C2=C(Cl)C(=O)C(N3CCCC3)=C(Cl)C2=O)s1`, 3.32 µM. With `Cc1[nH]c2ccccc2c1/C=N/NC(=O)c1cccc(S(=O)(=O)Nc2ccccc2Cl)c1` the figure was 8.71 µM; with `COc1ccc(C(=O)Nc2sc3c(c2C(=O)O)CC(C)(C)OC3)cc1`, 11 µM; with `c1cncc(CNc2ccc3c(c2)OCO3)c1`, 13.9 µM. With `CCOc1cc(NCc2ccccc2)c2ncn(C(C)C)c2c1`, the IC50 was > 80 µM (inactive). For `Cc1ccc(NC(=O)c2cc(N3C(=O)C=CC3=O)ccc2N2CCOCC2)cc1` the value was 15.7 µM; for `COc1cccc(CNc2ccc3[nH]c(=O)[nH]c3c2)c1OCc1ccccc1Cl`, “inactive”; for `O=S(=O)(NCc1csc(-c2ccccc2)n1)c1ccc(Cl)s1`, 6.28 µM. For `Cc1ccsc1/C=N/NC(=O)c1cccc(S(=O)(=O)Nc2ccccc2Cl)c1` the value was 13.2 µM; for `CCC(CO)[n+]1c(C)cc(/C=C2\Sc3ccccc3N2Cc2ccccc2)cc1C` (centres undefined), 12.2 µM. With `COc1ccccc1NS(=O)(=O)c1cc(NC(=O)c2ccc(Cl)nc2)ccc1N1CCCC1` the entry was “inactive”; with `COCCNC(=S)Nc1ccc(N2CCOCC2)c(S(=O)(=O)Nc2ccc(Cl)cc2)c1`, 19.4 µM.

`c1ccc(-c2cn3c(n2)CCc2ccc4cccnc4c2-3)cc1`: the IC50 is 8.54 µM. For `CC1=C(C)CS(=O)N(S(=O)(=O)c2ccc(Cl)cc2)C1` (centres undefined) the value was “inactive”.

On to `COc1cc(CNc2ccc(N3CCCC3)cc2)ccc1OCc1ccccc1F`, for which the IC50 is 2.39 µM.

Turning to `COc1ccc2ccccc2c1C1CC(=O)N2CN(C3CCCCC3)CSC2=C1C#N` (centres undefined), the concentration for half-maximal inhibition (IC50) is 14.7 µM. Turning to `C/C(Cn1nnc([N+](=O)[O-])n1)=N\NC(=O)c1ccc(O)cc1`, the IC50 is 14.6 µM. In the case of `Cn1sc2ccccc2c1=O`, the 50% inhibitory concentration (IC50) is 5.82 µM. Take `OCCN1CCN(C(=S)c2ccc(Cl)c(Cl)c2)CC1`: the IC50 is 12.5 µM. As for `CCNc1cc2c(cc1O)CCC1C2CCC2(C)C(O)CCC12` (centres undefined), the IC50 entry was “inactive”. In the case of `Cc1ccc(S(=O)(=O)NNc2ccccc2)cc1`, the IC50 result is “inactive”. With `O=C(O)CSc1cc(NS(=O)(=O)c2ccc(Cl)cc2)c2ccccc2c1O` the figure was 4.17 µM; with `CCOC(=O)c1sc(NC(=O)CSc2nnc(Cc3ccccc3)o2)c(C#N)c1C`, “inactive”; with `CCOC(=O)c1cnc2ccc(C)cc2c1Sc1ccccc1C(=O)OC`, 11.1 µM.

`O=c1[nH]c2ccccc2n2c(-c3ccccc3)nnc12`: the 50% inhibitory concentration (IC50) was 1.65 µM. In the case of `CC(C)(C)c1ccc(C(=O)Nc2sc3c(c2C(=O)O)CCC3)cc1`, the half-maximal inhibitory concentration (IC50) is 12.7 µM. Consider `COC(=O)c1ccccc1NC1=C/C(=N\S(=O)(=O)c2cccs2)c2ccccc2C1=O`, for which the IC50 is 1.26 µM and 6.47 µM. For the compound `CNCc1ccccc1Sc1cc(O)ccc1O`, the IC50 is 2.23 µM.

On to `C[C@H](CO)N1C[C@H](C)[C@@H](CN(C)C(=O)Nc2ccc(C(F)(F)F)cc2)Oc2c(cccc2N(C)C)C1=O`, for which the IC50 was 5.05 µM. `CCOc1ccc(CNc2ccc(N3CCCC3)cc2)cc1`: the IC50 is 2.64 µM. For `Cc1ccc(-c2nc(N)s[n+]2-c2ccccc2)cc1` the value was 9.13 µM; for `Cc1ccc2nc3sc(C(=O)N4CCOCC4)c(N)c3cc2c1`, 12.9 µM; for `Cc1ccc(S(=O)(=O)/N=C2/C=C(C3C(=O)CC(C)(C)CC3=O)C(=O)c3ccccc32)cc1`, 14.1 µM. `COc1cccc(-c2c(C(=O)N/N=C/c3ccc(C)s3)nnn2-c2nonc2N)c1`: the IC50 is 6.69 µM. For `Cc1cc(O)c(C(C)C)cc1N=Cc1ccc(N(C)C)cc1` the value was 4.4 µM. With `C[c-]1[c-](C)[c-](C)[c-](C)[c-]1C.[Fe].c1cc2nccc(N3CCCC3)[c-]2c1` (centres undefined) the entry was “inactive”; with `O=C1NC(=S)NC(=O)C1=Cc1ccc(Br)s1`, 7.9 µM. On to `Cc1ccc(NC(=O)c2cc(N3C(=O)C=CC3=O)ccc2N2CCOCC2)cc1Cl`, for which the IC50 is 12.2 µM. On to `N#CC(C#N)=C1C=CC=CN1/C(=C\c1ccccc1Cl)C(=O)c1ccccc1`, for which the half-maximal inhibitory concentration (IC50) is 8.31 µM. With `CCn1c(SCC(=O)Nc2ccccc2OC)nnc1-c1cnccn1` the entry was “inactive”; with `O=C(CSc1nc2cc(Cl)ccc2s1)c1ccco1`, 6.04 µM; with `COc1cc(-c2cc(=O)c3c(O)c(OC)c(OC)c(O)c3o2)ccc1O`, 8.95 µM.

Consider `CC1=CC(C)(C)Nc2ccc(OC(=O)CN3C(=O)CCC3=O)cc21`, for which the IC50 is 12 µM. In the case of `COc1ccc(C(=O)Nc2nnc(S(=O)(=O)N3CCOCC3)s2)cc1`, the 50% inhibitory concentration (IC50) was 7 µM. With `COc1cc(SSc2cc(OC)cc([N+](=O)[O-])c2N)c(N)c([N+](=O)[O-])c1` the figure was 4.2 µM.

Take `CC(=O)c1cccc(NC(=O)c2cnn(-c3ccccc3)c2C)c1`: the IC50 is 8.46 µM. With `CCSc1nc2cc(S(=O)(=O)N3CCOCC3)ccc2o1` the entry was “inactive”. With `O=C(CBr)c1ccc([N+](=O)[O-])c(CS(=O)(=O)c2ccc(Cl)cc2)c1` the figure was 10.5 µM; with `O=C(Nc1sc2c(c1C(=O)O)CCC2)c1ccc(F)cc1`, 7.8 µM.

For `Cc1ccccc1N/C(SCc1cccc(Br)c1)=C(/C#N)C(N)=O`, the concentration for half-maximal inhibition (IC50) is 5.9 µM.

In the case of `COc1cc(CN2CCCC(C(=O)c3ccc4c5c(cccc35)CC4)C2)cc(OC)c1O` (centres undefined), the IC50 is 3.44 µM. With `COc1ccc(C2(CNC(=O)c3ccc(OC)c([N+](=O)[O-])c3)CCCCC2)cc1OC`, the half-maximal inhibitory concentration (IC50) is 8.33 µM. For `CCCN1CCc2cc(O)cc3c2[C@H]1Cc1ccc(O)c(O)c1-3` the value was 10.8 µM. On to `CC(=O)Nc1cc([N+](=O)[O-])ccc1OCc1ccccc1`, for which the IC50 was 19.8 µM. For `Cc1cnc(C=NNC(N)=S)c2cccc(N)c12` the value was 1.72 µM.

In the case of `COc1cccc(/C=N/NC(=O)CSc2cccc3cccnc23)c1`, the IC50 is 5.46 µM.

`COc1ccc(N2C(=O)/C(=C/c3cccs3)NC2=S)cc1`: the IC50 entry was “inactive”.

Take `S=C(NN=Cc1ccccn1)N(Cc1ccccn1)Cc1ccccn1`: the half-maximal inhibitory concentration (IC50) is 4.66 µM. For `COc1ccc(C(=O)c2c(C(F)(F)F)oc3c2C(=O)c2ccccc2C3=O)cc1`, the IC50 result was “inactive”. With `O=c1ccsn1Cc1ccccc1`, the IC50 was 2.29 µM. For `Cc1cc(C)c2c(=O)n(CC(=O)Nc3ccc(Br)c(C)c3)sc2n1` the value was 2.62 µM; for `Cc1ccc(S(=O)(=O)SCCCSS(=O)(=O)c2ccc(C)cc2)cc1`, 4.64 µM. For `C=CCOc1c(Cl)cc(CNc2ccc(N(C)C)cc2)cc1OC` the value was 9.87 µM; for `ClC(Cl)(c1nnnn1-c1ccccc1)c1nnnn1-c1ccccc1`, 3.8 µM; for `CCOc1ccc(S(=O)(=O)Nc2cc(SCC(=O)O)c(O)c3ccccc23)cc1`, 2.47 µM. With `CS(=O)(=O)c1ccc(N)c(SSc2cc(S(C)(=O)=O)ccc2N)c1` the figure was 4.07 µM; with `Cc1ccc(Cl)cc1NC1=C/C(=N\S(=O)(=O)c2cccs2)c2ccccc2C1=O`, “inactive”. Take `COc1cc(N)c2ncccc2c1SC`: the IC50 result was “inactive”. With `CN=c1nc(-c2ccccc2)n(-c2ccccc2)s1` the figure was 4.82 µM. With `CCC(c1ccc(O)c(O)c1)C(CC)c1ccc(O)c(O)c1` (centres undefined) the entry was “inactive”; with `CCn1c2ccccc2c2cc(/C=N/n3cn[nH]c3=S)ccc21`, 9.81 µM; with `Cc1ccc(/C=C2\C(=O)NC(=S)N(c3ccccc3F)C2=O)s1`, “inactive”. For `CN1CC[C@@]2(C)c3cc(O)ccc3N(C)[C@@H]12` the value was 1.52 µM; for `COc1cc(/C=C/C(=O)c2ccc([N+](=O)[O-])o2)ccc1O`, 5.16 µM.

Consider `O=c1c2ccccc2sn1-c1ccc(S(=O)(=O)N2CCCCC2)cc1`, for which the half-maximal inhibitory concentration (IC50) is 7.2 µM. With `COc1ccc(OC)c2c1C(=O)C(Cl)=C(Cl)C2=O` the figure was 4.64 µM; with `O=C1NC(=O)N(c2ccccc2)C(=O)/C1=C/c1ccc([N+](=O)[O-])s1`, 10 µM.

For `COC(=O)c1cc2c(n1S(=O)(=O)c1ccc(C)cc1)C(=O)C(=O)c1[nH]cc(C(=O)OCc3ccccc3)c1-2`, the IC50 is 15.8 µM. With `Oc1ccc(NCc2ccccc2OCc2ccccc2)cc1` the entry was “inactive”; with `O=C1C=CC(=O)N1c1ccc(-c2nc3ccccc3o2)cc1`, 12.6 µM. With `Cc1ccc(S(=O)(=O)C=CS(=O)(=O)c2ccc(C)cc2)cc1` the figure was 6.65 µM; with `Cc1ccc(-c2csc(NC(=O)c3ccccc3F)c2C(=O)O)cc1`, 8.06 µM; with `O=C(Cc1ccccc1)NCC(=O)OCC(=O)c1ccc([N+](=O)[O-])cc1`, 10.6 µM.

As for `O=[N+]([O-])c1ccc(-[n+]2ccc3ccccc3c2)c([N+](=O)[O-])c1`, the IC50 is 8.26 µM. With `O=C(Nc1nnc(S(=O)(=O)N2CCCCC2)s1)c1cccc(Br)c1` the figure was 6.37 µM; with `O=S(=O)(Nc1cc(Sc2cccc3cccnc23)c(O)c2ccccc12)c1ccc(F)cc1`, 1.22 µM.

Turning to `[O-]/[N+](=C\c1ccccc1)c1ccc(Br)cc1`, the half-maximal inhibitory concentration (IC50) was 0.84 µM. With `CCOC(=O)c1c(OCC)[nH]c2c1cc(O)c1ccccc12` the entry was “inactive”; with `C=CCSc1nnc(NC(=O)c2ccc(Cl)nc2)s1`, 4.05 µM; with `Cc1cc(C)nc(/N=C(\N)Nc2ccccc2-c2ccccc2)n1`, 8.17 µM.

As for `Cc1ccc(NC(=O)c2cc(C)n(-c3ccccc3)c2C)cc1`, the 50% inhibitory concentration (IC50) was 14.1 µM. With `Nc1c(C(=O)Nc2ccc(F)cc2)sc(=S)n1-c1ccccc1F` the figure was 8.31 µM. With `O=c1c2ccccc2sn1-c1cccc(Cl)c1` the figure was 4.18 µM. For `Cc1cc(C)c(NC(=S)NCC2CCN(C(C)c3ccccc3)C2)c(C)c1` (centres undefined) the value was 14.8 µM; for `O=C1C=CC2=C3c4cc(O)c(O)cc4CC3(O)COC2=C1O` (centres undefined), 6.49 µM.
